target: PDE4B (Homo sapiens, UniProt Q07343); assay: Scintillation Proximity Assay (SPA) of PDE4B enzyme activity ([H3]-cAMP cleavage); type: biochemical; details: test substance 1 μM; one-hour incubation of [H3]-cAMP with PDE4B enzyme at 30° C.
Method: The inhibitions (in %) at 1 μM of the individual Example substances are given in the following Table of Examples and were determined as follows:
The Scintillation Proximity Assay (SPA) (GE Healthcare, No. TRKQ7090) was carried out by using the different affinities of cyclic 3′-5′-adenosinemonophosphate (cAMP, low affinity) and linear 5′-adenosinemonophosphate (AMP, high affinity) for yttrium silicate scintillator beads. The cAMP specific phosphodiesterase (PDE) PDE4B cleaves the 3′-phosphoester bond of tritium-labelled [H3]-cAMP to form [H3]-5′-AMP. This [H3]-AMP accumulates on the scintillator beads because of its higher affinity for them and causes scintillation events (flashes of light) which are measured in a Wallac Microbeta Scintillation Counter.
The experiment starts with a one-hour incubation of [H3]-cAMP with the PDE4B enzyme in assay buffer at 30° C., in each case once with the Example substance to be tested (in a concentration of 1 μM) and once without the Example substance to be tested.
After this incubation, the reaction is stopped by the addition of the beads. The beads have an opportunity to settle in the next 45 minutes, then the measurement is carried out in the Scintillation Counter. If the substance is capable of inhibiting the enzymatic activity of the PDE4B, less [H3]-AMP is produced during the incubation phase and fewer scintillation events can be measured.

Chain of PDE4B (Q07343 whole entry, species assumed): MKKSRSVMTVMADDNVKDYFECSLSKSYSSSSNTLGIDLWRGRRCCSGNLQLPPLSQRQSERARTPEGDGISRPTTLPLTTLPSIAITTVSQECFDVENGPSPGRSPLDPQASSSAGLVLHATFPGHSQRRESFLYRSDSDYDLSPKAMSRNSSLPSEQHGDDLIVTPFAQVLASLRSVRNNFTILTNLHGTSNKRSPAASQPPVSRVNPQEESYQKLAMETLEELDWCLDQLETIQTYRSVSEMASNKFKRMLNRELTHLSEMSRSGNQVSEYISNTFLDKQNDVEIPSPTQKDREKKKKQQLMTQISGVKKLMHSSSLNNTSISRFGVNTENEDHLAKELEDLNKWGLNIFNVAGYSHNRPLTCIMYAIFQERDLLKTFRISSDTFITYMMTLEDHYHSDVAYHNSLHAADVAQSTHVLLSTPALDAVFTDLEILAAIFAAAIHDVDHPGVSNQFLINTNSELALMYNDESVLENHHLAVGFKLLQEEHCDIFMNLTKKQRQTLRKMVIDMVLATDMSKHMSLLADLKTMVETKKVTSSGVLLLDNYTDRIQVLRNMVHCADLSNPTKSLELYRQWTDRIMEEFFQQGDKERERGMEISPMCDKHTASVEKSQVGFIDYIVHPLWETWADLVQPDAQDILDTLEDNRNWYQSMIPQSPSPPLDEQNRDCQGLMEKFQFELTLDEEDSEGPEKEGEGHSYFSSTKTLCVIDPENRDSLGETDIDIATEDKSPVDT

inhibition at 1 µM | Compound
97% | CN1C[C@@H](Nc2nc(N3CCC(c4c[nH]c5ccccc45)CC3)nc3c2[S+]([O-])CC3)CCC1=O (stereo partly shown) [Example 41]
92% | CCc1[nH]c2ccc(F)cc2c1C1CCN(c2nc3c(c(Nc4cccc(F)c4)n2)[S+]([O-])CC3)CC1 (stereo not shown) [Example 82, {2-[4-(2-Ethyl-5-Fluoro-1H-Indol-3-Yl)-Piperidin-1-Yl]-5-Oxo-6,7-Dihydro-5H-5λ^4-Thieno[3,2-d]Pyrimidin-4-Yl}-(3-Fluorophenyl)-Amine]
92% | CCc1[nH]c2ccc(F)cc2c1C1CCN(c2nc3c(c(NC4(CO)CC4)n2)[S+]([O-])CC3)CC1 (stereo not shown) [Example 37, (1-{2-[4-(2-Ethyl-5-Fluoro-1H-Indol-3-Yl)-Piperidin-1-Yl]-5-Oxo-6,7-Dihydro-5H-5λ^4-Thieno[3,2-d]Pyrimidin-4-Ylamino}-Cyclopropyl)-Methanol]
92% | [O-][S+]1CCc2nc(N3CCC(c4ccc(F)cc4F)CC3)nc(NC3CCOCC3)c21 (stereo not shown) [Example 90, {2-[4-(2,4-Difluorophenyl)-Piperidin-1-Yl]-5-Oxo-6,7-Dihydro-5H-5λ^4-Thieno[3,2-d]Pyrimidin-4-Yl}-(Tetrahydropyran-4-Yl)-Amine]
93% | [O-][S+]1CCc2nc(N3CCC(c4ccc(F)cc4F)CC3)nc(NC3(CO)CC3)c21 (stereo not shown) [Example 89, (1-{2-[4-(2,4-Difluorophenyl)-Piperidin-1-Yl]-5-Oxo-6,7-Dihydro-5H-5λ^4-Thieno[3,2-d]Pyrimidin-4-Ylamino}-Cyclopropyl)-Methanol]
95% | CC(C)[C@H](CO)Nc1nc(N2CCC(c3noc4cc(F)ccc34)CC2)nc2c1[S+]([O-])CC2 (stereo partly shown) [Example 152]
95% | [O-][S+]1CCc2nc(N3CCC(c4nc(-c5ccncc5)no4)CC3)nc(NC3CCOCC3)c21 (stereo not shown) [Example 132]
95% | COC(=O)c1cccc(C2CCN(c3nc4c(c(NC5CCOCC5)n3)[S+]([O-])CC4)CC2)c1 (stereo not shown) [Example 120]
96% | [O-][S+]1CCc2nc(N3CCC(c4cccc(Cl)c4)CC3)nc(NC3(CO)CC3)c21 (stereo not shown) [Example 39]

More lines, now with the values behind:

Compound | inhibition at 1 µM
CCC[C@H](CO)Nc1nc(N2CCC(c3ccc(Cl)cc3)CC2)nc2c1[S+]([O-])CC2 (stereo partly drawn) [Example 3, (R)-2-{2-[4-(4-chlorophenyl)-piperidin-1-yl]-5-oxo-6,7-dihydro-5H-5λ^4-thieno[3,2-d]pyrimidin-4-ylamino}-pentan-1-ol] | 94%
[O-][S+]1CCc2nc(N3CCC4(CC3)OCc3ccccc34)nc(Nc3cccc(F)c3)c21 (stereo not shown) [Example 140] | 83%
COC(=O)c1cccc(C2CCN(c3nc4c(c(NC5(CO)CC5)n3)[S+]([O-])CC4)CC2)c1 (stereo not shown) [Example 104] | 95%
CC(C)[C@H](CO)Nc1nc(N2CCC(c3nc(-c4cccnc4)no3)CC2)nc2c1[S+]([O-])CC2 (stereo partly shown) [Example 162] | 92%
N#CC1(c2ccccc2)CCN(c2nc3c(c(Nc4cccc(F)c4)n2)[S+]([O-])CC3)CC1 (stereo not shown) [Example 85] | 96%
N#CC1(c2ccccc2)CCN(c2nc3c(c(NC4(CO)CC4)n2)[S+]([O-])CC3)CC1 (stereo not shown) [Example 40] | 94%
Cc1noc(C2CCN(c3nc4c(c(N[C@@H](CO)C(C)C)n3)[S+]([O-])CC4)CC2)n1 (stereo partly shown) [Example 23] | 85%
Cc1cccc(C2CCN(c3nc4c(c(NC5(CO)CC5)n3)[S+]([O-])CC4)CC2)c1 (stereo not shown) [Example 8] | 93%
[O-][S+]1CCc2nc(N3CCC(c4nc5cc(Cl)ccc5s4)CC3)nc(Nc3cccc(F)c3)c21 (stereo not shown) [Example 134] | 95%
CC(C)[C@H](CO)Nc1nc(N2CCC3(CC2)OCc2ccccc23)nc2c1[S+]([O-])CC2 (stereo partly shown) [Example 156] | 64%
CCOC(=O)c1ccc2c(C3CCN(c4nc5c(c(NC6(CO)CC6)n4)[S+]([O-])CC5)CC3)c[nH]c2c1 (stereo not shown) [Example 29, ethyl 3-{1-[4-(1-hydroxymethylcyclopropylamino)-5-oxo-6,7-dihydro-5H-5λ^4-thieno[3,2-d]pyrimidin-2-yl]-piperidin-4-yl}-1H-indole-6-carboxylate] | 97%
CC(C)[C@H](CO)Nc1nc(N2CCC(c3ccc4ccccc4c3)CC2)nc2c1[S+]([O-])CC2 (stereo partly shown) [Example 158] | 94%
CS(=O)(=O)N1CC2(CCN(c3nc4c(c(Nc5cccc(F)c5)n3)[S+]([O-])CC4)CC2)c2ccccc21 (stereo not shown) [Example 74] | 95%

same assay, conditions: test substance 1 μM; one-hour incubation with [H3]-cAMP at 30° C.

inhibition at 1 µM | Compound
94% | CN(C(=O)c1ccc(C2CCN(c3nc4c(c(NC5CCOCC5)n3)[S+]([O-])CC4)CC2)cc1)C1CC1 (stereo not shown) [Example 229, N-cyclopropyl-N-methyl-4-{1-[5-oxo-4-(tetrahydropyran-4-ylamino)-6,7-dihydro-5H-5λ^4-thieno[3,2-d]pyrimidin-2-yl]-piperidin-4-yl}-benzamide]
83% | O=C(c1ccc(C2CCN(c3nc4c(c(NC5CCOCC5)n3)[S+]([O-])CC4)CC2)cc1)N1CCOCC1 (stereo not shown) [Example 227]
95% | [O-][S+]1CCc2nc(N3CCC(c4nc5cccnc5[nH]4)CC3)nc(NC3CCOCC3)c21 (stereo not shown) [Example 207]
93% | Cc1cn(C)nc1CN(C)C(=O)c1cccc(C2CCN(c3nc4c(c(NC5CCOCC5)n3)[S+]([O-])CC4)CC2)c1 (stereo not shown) [Example 258]
86% | N#CC1(c2ccc(F)cc2)CCN(c2nc3c(c(NC4CCOCC4)n2)[S+]([O-])CC3)CC1 (stereo not shown) [Example 293]
95% | CCCN1C[C@@H](Nc2nc(N3CCC(c4ccc(Cl)cc4)CC3)nc3c2[S+]([O-])CC3)CCC1=O (stereo partly shown) [Example 201, 5-{2-[4-(4-chlorophenyl)-piperidin-1-yl]-5-oxo-6,7-dihydro-5H-5λ^4-thieno[3,2-d]pyrimidin-4-ylamino}-1-propylpiperidin-2-one]
95% | [O-][S+]1CCc2nc(N3CCC(Oc4ccccn4)CC3)nc(NC3CCOCC3)c21 (stereo not shown) [Example 173]
93% | CN1CCC(N(C)C(=O)c2ccc(OC3CCN(c4nc5c(c(NC6CCOCC6)n4)[S+]([O-])CC5)CC3)cc2)CC1 (stereo not shown) [Example 241]
95% | CC(C)(NC(=O)c1ccc(OC2CCN(c3nc4c(c(NC5CCOCC5)n3)[S+]([O-])CC4)CC2)cc1)c1ccncc1 (stereo not shown) [Example 236]
77% | COC1CCN(c2nc3c(c(NC4CCOCC4)n2)[S+]([O-])CC3)CC1 (stereo not shown) [Example 170]
97% | CN1C[C@@H](Nc2nc(N3CCC(c4nc5ccc(Cl)cc5o4)CC3)nc3c2[S+]([O-])CC3)CCC1=O (stereo partly shown) [Example 194, 5-{2-[4-(6-Chlorbenzoxazol-2-yl)-piperidin-1-yl]-5-oxo-6,7-dihydro-5H-5λ^4-thieno[3,2-d]pyrimidin-4-ylamino}-1-methylpiperidin-2-one]
95% | [O-][S+]1CCc2nc(N3CCC(c4nc5cc(F)ccc5[nH]4)CC3)nc(NC3CCOCC3)c21 (stereo not shown) [Example 209]

Further lines, the compound ahead of its results:

Compound | inhibition at 1 µM
[O-][S+]1CCc2nc(N3CCC(c4nc(-c5ccccc5)c(-c5ccccc5)o4)CC3)nc(NC3(CO)CC3)c21 (stereo not shown) [Example 280] | 95%
COC(=O)C1(c2ccccc2)CCN(c2nc3c(c(N[C@H]4CCC(=O)N(C)C4)n2)[S+]([O-])CC3)CC1 (stereo partly shown) [Example 205, methyl 1-[4-(1-methyl-6-oxopiperidin-3-ylamino)-5-oxo-6,7-dihydro-5H-5λ^4-thieno[3,2-d]pyrimidin-2-yl]-4-phenylpiperidine-4-carboxylate] | 96%
CN1C[C@@H](Nc2nc(N3CCC(CO)(c4ccc(Cl)cc4)CC3)nc3c2[S+]([O-])CC3)CCC1=O (stereo partly shown) [Example 246, 5-{2-[4-(4-Chlorophenyl)-4-Hydroxymethylpiperidin-1-Yl]-5-Oxo-6,7-Dihydro-5H-5λ^4-Thieno[3,2-d]Pyrimidin-4-Ylamino}-1-Methyl Piperidin-2-One] | 93%
CN(C)CC(=O)NCC1(c2ccccc2)CCN(c2nc3c(c(N[C@H]4CCC(=O)N(C)C4)n2)[S+]([O-])CC3)CC1 (stereo partly shown) [Example 206, 2-dimethylamino-N-{1-[4-(1-methyl-6-oxopiperidin-3-ylamino)-5-oxo-6,7-dihydro-5H-5λ^4-thieno[3,2-d]pyrimidin-2-yl]-4-phenylpiperidin-4-ylmethyl}-acetamide] | 95%
CN(CC1(c2ccccc2)CCN(c2nc3c(c(Nc4cccc(F)c4)n2)[S+]([O-])CC3)CC1)S(C)(=O)=O (stereo not shown) [Example 332] | 93%
CS(=O)(=O)NCC1(c2ccccc2)CCN(c2nc3c(c(NC4(CO)CC4)n2)[S+]([O-])CC3)CC1 (stereo not shown) [Example 324] | 89%
Cc1nc(C2CCN(c3nc4c(c(NC5(CO)CC5)n3)[S+]([O-])CC4)CC2)oc1-c1ccc(Cl)cc1 (stereo not shown) [Example 283, [1-(2-{4-[5-(4-chlorophenyl)-4-methyloxazol-2-yl]-piperidin-1-yl}-5-oxo-6,7-dihydro-5H-5λ^4-thieno[3,2-d]pyrimidin-4-ylamino)-cyclopropyl]-methanol] | 89%
COCC(=O)NCC1(c2ccccc2)CCN(c2nc3c(c(N[C@H]4CCC(=O)N(C)C4)n2)[S+]([O-])CC3)CC1 (stereo partly shown) [Example 202, 2-methoxy-N-{1-[4-(1-methyl-6-oxopiperidin-3-ylamino)-5-oxo-6,7-dihydro-5H-5λ^4-thieno[3,2-d]pyrimidin-2-yl]-4-phenylpiperidin-4-ylmethyl}-acetamide] | 96%
COCC1(c2ccc(Cl)cc2)CCN(c2nc3c(c(Nc4cccc(F)c4)n2)[S+]([O-])CC3)CC1 (stereo not shown) [Example 305] | 91%
